[invAb] = 3' inverted deoxyabasic cap; [2NH2-N] = 2'-deoxy-2'-amino ribonucleotide (N: the base); [amino-N] = 2'-deoxy-2'-amino nucleotide (N: the base); [I] = hypoxanthine (inosine); m = 2'-O-methyl; r = 2'-OH (RNA)
Legend:
[1] = tested on: plus strand HCV RNA; format: biochemical, Hepatitis C virus; settings: plus strand (+) HCV site, 50 mM Tris-Cl, pH 8.0, 40 mM Mg2+ at 37°, trace substrate, enzymatic nucleic acid concentration of 500 nM or greater
[2] = tested on: minus strand HCV RNA; format: biochemical, Hepatitis C virus; settings: minus strand (−) HCV site, 50 mM Tris-Cl, pH 8.0, 40 mM Mg2+ at 37°, trace substrate, enzymatic nucleic acid concentration of 500 nM or greater

For “22947 (GGAGUGACUGAUGAGGCCGUUAGGCCGAAAAUGCGC; 2'-O-methyl at 1, 2, 3, 4, 5, 6, 7, 15, 16, 17, 18, 19, 20, 21, 22, 23, 24, 25, 26, 31, 32, 33, 34, 35, 36, [invAb] at 3' end, other sugars and backbone not given here) [compound 22947]”, the “% Substrate Cleaved in 3 hours” value [1] was 81.88%.
With “22976 (AAGAGGAGGCTAGCTACAACGAGCGGCGAN; 3' inverted abasic cap (B); Description of Artificial Sequence: Nucleic Acid; misc_feature (30)..(30): n stands for inverted deoxyabasic derivative; misc_feature (1)..(7): 2'-O-Methyl; misc_feature (23)..(29): 2'-O-Methyl) [compound 22976]” the “% Substrate Cleaved in 3 hours” value [2] was 66.06%.
“22725 (GGAAAAGUGAUGGCAUGCACUAUGCGCGAACAGGA; sugars from the 5' end mmmmmmmmrrrmmmmmrmmmmmmmmmrmmmmmmmm, [invAb] at 3' end, backbone not given here) [compound 22725]” was tested, and the “% Substrate Cleaved in 3 hours” value [2] was 94.66%.
With “22754 (AGGAGUAGCCGAAAGGCGAGUGAGGUCUGUGGAGG; 2'-O-methyl at 1, 2, 3, 4, 5, 6, 7, 8, 9, 10, 11, 12, 13, 14, 15, 16, [2NH2-N] at 17, 27, [invAb] at 3' end, other sugars and backbone not given here) [compound 22754]” the “% Substrate Cleaved in 3 hours” value [2] was 50.40%.
With “22753 (UGGAAGAGCCGAAAGGCGAGUGAGGUCUACUGAGA; 2'-O-methyl at 1, 2, 3, 4, 5, 6, 7, 8, 9, 10, 11, 12, 13, 14, 15, 16, [2NH2-N] at 17, 27, [invAb] at 3' end, other sugars and backbone not given here) [compound 22753]” the “% Substrate Cleaved in 3 hours” value [2] was 89.39%.
In the case of “22784 (UGGAUGACUGAUGAGGCCGUUAGGCCGAANCUGUUG; 2'-O-methyl at 1, 2, 3, 4, 5, 6, 7, 15, 16, 17, 18, 19, 20, 21, 22, 23, 24, 25, 26, 31, 32, 33, 34, 35, 36, [I] at 30, [invAb] at 3' end, other sugars and backbone not given here) [compound 22784]”, the “% Substrate Cleaved in 3 hours” value [2] is reported as 90.41%.
“22948 (GCGAGCCCUGAUGAGGCCGUUAGGCCGAAACGAGUC; 2'-O-methyl at 1, 2, 3, 4, 5, 6, 7, 15, 16, 17, 18, 19, 20, 21, 22, 23, 24, 25, 26, 31, 32, 33, 34, 35, 36, [invAb] at 3' end, other sugars and backbone not given here) [compound 22948]” was tested, and the “% Substrate Cleaved in 3 hours” value [2] was 88.34%.
In the case of “22726 (AGAAGAAUGAUGGCAUGCACUAUGCGCGACGAGGA; sugars from the 5' end mmmmmmmmrrrmmmmmrmmmmmmmmmrmmmmmmmm, [invAb] at 3' end, backbone not given here) [compound 22726]”, the “% Substrate Cleaved in 3 hours” value [2] is reported as 82.14%.
“22977 (AAGGAGAGGCTAGCTACAACGAGAAGGCGN; 3' inverted abasic cap (B); Description of Artificial Sequence: Nucleic Acid; misc_feature (30)..(30): n stands for inverted deoxyabasic derivative; misc_feature (1)..(7): 2'-O-Methyl; misc_feature (23)..(29): 2'-O-Methyl) [compound 22977]” was tested, and the “% Substrate Cleaved in 3 hours” value [2] was 71.28%.
“22949 (GCUGGAACUGAUGAGGCCGUUAGGCCGAAACACUGA; 2'-O-methyl at 1, 2, 3, 4, 5, 6, 7, 15, 16, 17, 18, 19, 20, 21, 22, 23, 24, 25, 26, 31, 32, 33, 34, 35, 36, [invAb] at 3' end, other sugars and backbone not given here) [compound 22949]” was tested, and the “% Substrate Cleaved in 3 hours” value [2] was 89.16%.
With “22756 (UGGAAGAGCCGAAAGGCGAGUGAGGUCUGGCGUGA; 2'-O-methyl at 1, 2, 3, 4, 5, 6, 7, 8, 9, 10, 11, 12, 13, 14, 15, 16, [2NH2-N] at 17, 27, [invAb] at 3' end, other sugars and backbone not given here) [compound 22756]” the “% Substrate Cleaved in 3 hours” value [2] was 73.47%.
In the case of “22979 (AGGAGUAGGCTAGCTACAACGAGUGGAGGN; 3' inverted abasic cap (B); Description of Artificial Sequence: Nucleic Acid; misc_feature (30)..(30): n stands for inverted deoxyabasic derivative; misc_feature (1)..(7): 2'-O-Methyl; misc_feature (23)..(29): 2'-O-Methyl) [compound 22979]”, the “% Substrate Cleaved in 3 hours” value [2] is reported as 85.53%.
“22728 (GGUAGGUUGAUGGCAUGCACUAUGCGCGAAGUGGC; sugars from the 5' end mmmmmmmmrrrmmmmmrmmmmmmmmmrmmmmmmmm, [invAb] at 3' end, backbone not given here) [compound 22728]” was tested, and the “% Substrate Cleaved in 3 hours” value [2] was 81.06%.
“22782 (GGAUGAGCUGAUGAGGCCGUUAGGCCGAANAGAGGU; 2'-O-methyl at 1, 2, 3, 4, 5, 6, 7, 15, 16, 17, 18, 19, 20, 21, 22, 23, 24, 25, 26, 31, 32, 33, 34, 35, 36, [I] at 30, [invAb] at 3' end, other sugars and backbone not given here) [compound 22782]” was tested, and the “% Substrate Cleaved in 3 hours” value [2] was 78.83%.
In the case of “22781 (GAGAUGACUGAUGAGGCCGUUAGGCCGAANGCGAAG; 2'-O-methyl at 1, 2, 3, 4, 5, 6, 7, 15, 16, 17, 18, 19, 20, 21, 22, 23, 24, 25, 26, 31, 32, 33, 34, 35, 36, [I] at 30, [invAb] at 3' end, other sugars and backbone not given here) [compound 22781]”, the “% Substrate Cleaved in 3 hours” value [2] is reported as 70.67%.
“22724 (GGAUGGUUGAUGGCAUGCACUAUGCGCGAGACAGG; sugars from the 5' end mmmmmmmmrrrmmmmmrmmmmmmmmmrmmmmmmmm, [invAb] at 3' end, backbone not given here) [compound 22724]” was tested, and the “% Substrate Cleaved in 3 hours” value [2] was 65.16%.
With “22727 (GGACGAGUGAUGGCAUGCACUAUGCGCGACUUUGU; sugars from the 5' end mmmmmmmmrrrmmmmmrmmmmmmmmmrmmmmmmmm, [invAb] at 3' end, backbone not given here) [compound 22727]” the “% Substrate Cleaved in 3 hours” value [2] was 67.20%.
In the case of “22752 (AAGAGGAGCCGAAAGGCGAGUGAGGUCUGCGGCGA; 2'-O-methyl at 1, 2, 3, 4, 5, 6, 7, 8, 9, 10, 11, 12, 13, 14, 15, 16, [amino-N] at 17, 27, [invAb] at 3' end, other sugars and backbone not given here) [compound 22752]”, the “% Substrate Cleaved in 3 hours” value [2] is reported as 27.83%.
In the case of “22952 (GACUGGACUGAUGAGGCCGUUAGGCCGAAAUGCACG; 2'-O-methyl at 1, 2, 3, 4, 5, 6, 7, 15, 16, 17, 18, 19, 20, 21, 22, 23, 24, 25, 26, 31, 32, 33, 34, 35, 36, [invAb] at 3' end, other sugars and backbone not given here) [compound 22952]”, the “% Substrate Cleaved in 3 hours” value [2] is reported as 86.96%.
In the case of “22950 (AGGAUGACUGAUGAGGCCGUUAGGCCGAAAGAGAGG; 2'-O-methyl at 1, 2, 3, 4, 5, 6, 7, 15, 16, 17, 18, 19, 20, 21, 22, 23, 24, 25, 26, 31, 32, 33, 34, 35, 36, [invAb] at 3' end, other sugars and backbone not given here) [compound 22950]”, the “% Substrate Cleaved in 3 hours” value [2] is reported as 83.43%.
With “22978 (AGGAGGAGGCTAGCTACAACGAGAGAGAGN; 3' inverted abasic cap (B); Description of Artificial Sequence: Nucleic Acid; misc_feature (1)..(7): 2'-O-Methyl; misc_feature (23)..(29): 2'-O-Methyl; misc_feature (30)..(30): n stands for inverted deoxyabasic derivative) [compound 22978]” the “% Substrate Cleaved in 3 hours” value [2] was 61.60%.
With “22980 (GUUGUGAGGCTAGCTACAACGAUUGGAGGN; 3' inverted abasic cap (B); Description of Artificial Sequence: Nucleic Acid; misc_feature (30)..(30): n stands for inverted deoxyabasic derivative; misc_feature (1)..(7): 2'-O-Methyl; misc_feature (23)..(29): 2'-O-Methyl) [compound 22980]” the “% Substrate Cleaved in 3 hours” value [2] was 34.60%.
With “22783 (UGUGCAGCUGAUGAGGCCGUUAGGCCGAANGAUGAA; 2'-O-methyl at 1, 2, 3, 4, 5, 6, 7, 15, 16, 17, 18, 19, 20, 21, 22, 23, 24, 25, 26, 31, 32, 33, 34, 35, 36, [I] at 30, [invAb] at 3' end, other sugars and backbone not given here) [compound 22783]” the “% Substrate Cleaved in 3 hours” value [2] was 86.93%.
For “22755 (CGAAGCAGCCGAAAGGCGAGUGAGGUCUAUGUGGA; 2'-O-methyl at 1, 2, 3, 4, 5, 6, 7, 8, 9, 10, 11, 12, 13, 14, 15, 16, [2NH2-N] at 17, 27, [invAb] at 3' end, other sugars and backbone not given here) [compound 22755]”, the “% Substrate Cleaved in 3 hours” value [2] was 81.10%.
With “22951 (UGAGGAGCUGAUGAGGCCGUUAGGCCGAAACGUGGA; 2'-O-methyl at 1, 2, 3, 4, 5, 6, 7, 15, 16, 17, 18, 19, 20, 21, 22, 23, 24, 25, 26, 31, 32, 33, 34, 35, 36, [invAb] at 3' end, other sugars and backbone not given here) [compound 22951]” the “% Substrate Cleaved in 3 hours” value [2] was 83.25%.
For “22780 (GACACUGCUGAUGAGGCCGUUAGGCCGAANACACCA; ribozyme; 2'-O-methyl at 1, 2, 3, 4, 5, 6, 7, 15, 16, 17, 18, 19, 20, 21, 22, 23, 24, 25, 26, 31, 32, 33, 34, 35, 36, [I] at 30, [invAb] at 3' end, other sugars and backbone not given here) [compound 22780]”, the “% Substrate Cleaved in 3 hours” value [2] was 87.33%.

Reference: patent US20040127446A1 (priority 1992, published 2004)
